This experiment relates to P388 leukemia ip, CD2F1 mice, survival T/C. The experiment in a line: NCI In Vivo Anticancer Drug Screen. Data for tumor model P388 Leukemia (intraperitoneal) in CD2F1 (CDF1) mice. The settings on record: endpoint: median survival time, higher = longer survival. The gist of the method: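 Mice carrying the transplanted tumor received test compound or vehicle. Survival was recorded in each group, and the value is the treated-group measurement divided by that of the vehicle-treated control group.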

The mark [1] stands for this setting: dose: 50.0 mg/kg/injection, schedule: Q01DX005 (ip), vehicle: saline with Tween-80.
The mark [2] stands for this setting: dose: 100.0 mg/kg/injection, schedule: Q01DX005 (ip), vehicle: saline with Tween-80.
Setting [3] is: dose: 12.5 mg/kg/injection, schedule: Q01DX009 (ip), vehicle: saline with Tween-80.
Where [4] appears, read: dose: 25.0 mg/kg/injection, schedule: Q01DX009 (ip), vehicle: saline with Tween-80.
[5] abbreviates: dose: 50.0 mg/kg/injection, schedule: Q01DX009 (ip), vehicle: saline with Tween-80.
The mark [6] stands for this setting: dose: 25.0 mg/kg/injection, schedule: Q01DX009 (ip), vehicle: Klucel (hydroxypropylcellulose) (HPC).
[7] abbreviates: dose: 50.0 mg/kg/injection, schedule: Q01DX009 (ip), vehicle: Klucel (hydroxypropylcellulose) (HPC).
The mark [8] stands for this setting: dose: 200.0 mg/kg/injection, schedule: Q01DX009 (ip), vehicle: saline with Tween-80.
Where [9] appears, read: dose: 60.0 mg/kg/injection, schedule: Q01DX005 (ip), vehicle: saline with Tween-80.
Setting [10] is: dose: 120.0 mg/kg/injection, schedule: Q01DX005 (ip), vehicle: saline with Tween-80.
The mark [11] stands for this setting: dose: 240.0 mg/kg/injection, schedule: Q01DX005 (ip), vehicle: saline with Tween-80.
[12] abbreviates: dose: 50.0 mg/kg/injection, schedule: Q01DX005 (ip), vehicle: Klucel (hydroxypropylcellulose) (HPC).
Setting [13] is: dose: 100.0 mg/kg/injection, schedule: Q01DX005 (ip), vehicle: Klucel (hydroxypropylcellulose) (HPC).
Where [14] appears, read: dose: 200.0 mg/kg/injection, schedule: Q01DX005 (ip), vehicle: Klucel (hydroxypropylcellulose) (HPC).

Structures are written as SMILES. Where “and” joins values, the source holds several entries; their conditions need not be identical. Equal values may be shown once. Inconclusive results and toxic doses are left out. Numbered stars: 1 amine (or outer) side, 2 acyl side, 3 side chain; on linkers, the order of the positions; unused ones are H or OH. Bridge positions count the residues as written; N and C are the ends. Square brackets hold non-standard residues; d marks the D form. Peptide text beside a SMILES is read from it. I, II: the chains in the order shown. Actinocin(9to1) = Cc1c2oc3c(C)ccc(C(=O)[*:1])c3nc-2c(C(=O)[*:2])c(N)c1=O; NMeV = CN[CH](C(=O)O)C(C)C; Sar = CNCC(=O)O

As for `Cc1ccc2c(c1)-c1[nH]c3ccccc3c1CS2`, the T/C is, setting by setting: (dose: 100.0 mg/kg/injection, schedule: Q04DX003 (ip), vehicle: Klucel (hydroxypropylcellulose) (HPC)) 104 % of control; (dose: 200.0 mg/kg/injection, schedule: Q04DX003 (ip), vehicle: Klucel (hydroxypropylcellulose) (HPC)) 115 % of control.

For the compound `NS(=O)(=O)c1ccc(N=c2c3ccccc3n(Cc3ccccc3)c3ccccc23)cc1`, the T/C by setting is: under setting [1], 88 % of control; under setting [2], 94 % of control.

For `COc1ccc(C(=O)C(Br)C(Br)C(=O)O)cc1` (stereo not drawn), the T/C is 114 % of control under setting [3]; 114 % of control under setting [4]; 107 % of control and 121 % of control under setting [5].

For `CCCCOS(=O)(=O)c1ccc([N+](C)(C)C)cc1`, the T/C (dose: 12.5 mg/kg/injection, schedule: Q01DX009 (ip), vehicle: Klucel (hydroxypropylcellulose) (HPC)) is 100 % of control; the T/C under setting [6] was 102 % of control; the T/C under setting [7] was 104 % of control.

For the compound `NC1C[S][Sn][O]C1=O` (stereo not drawn), the T/C (dose: 100.0 mg/kg/injection, schedule: Q04DX003 (ip), vehicle: saline with Tween-80) was 111 % of control and the T/C (dose: 200.0 mg/kg/injection, schedule: Q04DX003 (ip), vehicle: saline with Tween-80) was 109 % of control.

On to `COc1ccccc1-n1c(=S)n(-c2ccccc2C)c2nc3ccccc3nc1/c2=N\Nc1ccccn1`, for which the T/C by setting is: under setting [1], 100 % of control; under setting [2], 102 % of control.

Regarding `CCC1(O)C(=O)Nc2ccc(OC)cc2C1=O` (stereo not drawn), the T/C (dose: 60.0 mg/kg/injection, schedule: Q01DX005 (ip), vehicle: Klucel (hydroxypropylcellulose) (HPC)) was 97 % of control; the T/C (dose: 120.0 mg/kg/injection, schedule: Q01DX005 (ip), vehicle: Klucel (hydroxypropylcellulose) (HPC)) is 93 % of control; the T/C (dose: 240.0 mg/kg/injection, schedule: Q01DX005 (ip), vehicle: Klucel (hydroxypropylcellulose) (HPC)) was 93 % of control.

Turning to `C#Cc1cccc(N=Cc2ccc(C=Nc3cccc(C#C)c3)cc2)c1`, the T/C by setting is: (dose: 6.25 mg/kg/injection, schedule: Q01DX009 (ip), vehicle: saline with Tween-80) 104 % of control; under setting [3], 112 % of control; under setting [4], 86 % of control; under setting [8], 88 % of control.

With `COC(=O)c1cc(=O)c2scc(C)[n+]2[nH]1`, the T/C reads like this: under setting [1], 105 % of control; under setting [2], 100 % of control; (dose: 200.0 mg/kg/injection, schedule: Q01DX005 (ip), vehicle: saline with Tween-80) 100 % of control.

Turning to `O=C1c2cc3c(cc2C(=O)c2[nH]ncc21)OCO3`, the T/C is 92 % of control under setting [9], 100 % of control under setting [10] and 96 % of control under setting [11].

For `CC1N(/N=C/c2ccccc2)C(c2ccccc2)C(c2ccccc2)N1/N=C/c1ccccc1` (stereo not drawn), the T/C was 99 % of control under setting [12], 98 % of control under setting [13] and 99 % of control under setting [14].

For `C=CCNC(=S)NNC(=O)Cc1nc2ccccc2[nH]1`, the T/C was 98 % of control under setting [12], 97 % of control under setting [13] and 92 % of control under setting [14].

Consider `CC1=Nc2nc(=N)nc3cccc(n23)N1`, for which the T/C is 95 % of control under setting [9] and 104 % of control under setting [10].

As for `NC(=S)N/N=C1/CC(=O)N(c2ccccc2)C1c1ccccc1` (stereo not drawn), the T/C is 103 % of control under setting [9], 98 % of control under setting [10] and 94 % of control under setting [11].

Take `Cc1c2oc3c(C)ccc(C(=O)NC4C(=O)NC(C(C)C)C(=O)N(C)CC(=O)N(C)CC(=O)N(C)C(C(C)C)C(=O)OC4C)c3nc-2c(C(=O)NC2C(=O)NC(C(C)C)C(=O)N(C)CC(=O)N(C)CC(=O)N(C)C(C(C)C)C(=O)OC2C)c(N)c1=O` (stereo not drawn) (I: TV[Sar][Sar][NMeV] / II: TV[Sar][Sar][NMeV]; ester I:1-I:C, II:1-II:C; linker I:N-II:N via Actinocin(9to1); configuration not given here): the T/C (dose: 0.1 mg/kg/injection, schedule: Q01DX009 (ip), vehicle: water) is 164 % of control; the T/C (dose: 0.18 mg/kg/injection, schedule: Q01DX009 (ip), vehicle: other) was 166 % of control; the T/C (dose: 0.2 mg/kg/injection, schedule: Q01DX009 (ip), vehicle: water) was 166 % of control; the T/C (dose: 0.27 mg/kg/injection, schedule: Q01DX009 (ip), vehicle: other) was 202 % of control; the T/C (dose: 0.4 mg/kg/injection, schedule: Q01DX009 (ip), vehicle: other) is 200 % of control; the T/C (dose: 0.4 mg/kg/injection, schedule: Q01DX009 (ip), vehicle: water) is 205 % of control. Besides, the T/C was 270 % of control (dose: 0.6 mg/kg/injection, schedule: Q01DX009 (ip), vehicle: other); 156 % of control (dose: 0.8 mg/kg/injection, schedule: Q01DX009 (ip), vehicle: water); 88 % of control (dose: 1.6 mg/kg/injection, schedule: Q01DX009 (ip), vehicle: water).

`CC1CCC2C(OC(=O)C23CO3)C2(C)C(=O)C=CC12` (stereo not drawn): the T/C reads like this: (dose: 2.5 mg/kg/injection, schedule: Q01DX009 (ip), vehicle: saline + alcohol) 86 % of control; (dose: 5.0 mg/kg/injection, schedule: Q01DX009 (ip), vehicle: saline + alcohol) 100 % of control; (dose: 10.0 mg/kg/injection, schedule: Q01DX009 (ip), vehicle: saline + alcohol) 101 % of control; (dose: 20.0 mg/kg/injection, schedule: Q01DX009 (ip), vehicle: saline + alcohol) 99 % of control.

Take `C=CCNc1nc2c(s1)c1c(O)c3c(O)c(C)c4c(c32)C(=O)C(C)(O/C=C\C(OC)C(C)C(OC(C)=O)C(C)C(O)C(C)C(O)C(C)/C=C/C=C(/C)C(=O)N1)O4` (stereo not drawn): the T/C is 98 % of control under setting [6]; 100 % of control under setting [7]; 100 % of control (dose: 100.0 mg/kg/injection, schedule: Q01DX009 (ip), vehicle: Klucel (hydroxypropylcellulose) (HPC)); 94 % of control (dose: 200.0 mg/kg/injection, schedule: Q01DX009 (ip), vehicle: Klucel (hydroxypropylcellulose) (HPC)).

As to `O=[N+]([O-])c1ccc(N/N=C(\CBr)c2ccccc2)c([N+](=O)[O-])c1`, the T/C (dose: 100.0 mg/kg/injection, schedule: Q01DX001 (ip), vehicle: saline with Tween-80) is 91 % of control; the T/C (dose: 200.0 mg/kg/injection, schedule: Q01DX001 (ip), vehicle: saline with Tween-80) is 87 % of control; the T/C (dose: 400.0 mg/kg/injection, schedule: Q01DX001 (ip), vehicle: saline with Tween-80) is 87 % of control.

Take `COc1ccc(Nc2ncnc3ccccc23)cc1CN(CCCl)CCCl`: the T/C by setting is: (dose: 100.0 mg/kg/injection, schedule: Q01DX001 (ip), vehicle: Klucel (hydroxypropylcellulose) (HPC)) 100 % of control; (dose: 200.0 mg/kg/injection, schedule: Q01DX001 (ip), vehicle: Klucel (hydroxypropylcellulose) (HPC)) 90 % of control.

As for `O=S1(=O)C(=C(c2ccccc2)c2ccccc2)S(=O)(=O)c2ccccc21`, the T/C runs as follows: under setting [9], 104 % of control; under setting [10], 96 % of control; under setting [11], 102 % of control.

For `NCCCn1[nH]c(=O)c2cnccc2c1=O`, the T/C reads like this: (dose: 50.0 mg/kg/injection, schedule: Q01DX005 (ip), vehicle: saline) 103 % of control; (dose: 100.0 mg/kg/injection, schedule: Q01DX005 (ip), vehicle: saline) 94 % of control; (dose: 200.0 mg/kg/injection, schedule: Q01DX005 (ip), vehicle: saline) 101 % of control.

Take `C1=NCc2ccsc2-n2cccc21`: the T/C (dose: 25.0 mg/kg/injection, schedule: Q01DX005 (ip), vehicle: Klucel (hydroxypropylcellulose) (HPC)) was 100 % of control and the T/C under setting [12] is 105 % of control.

Turning to `CC(C)(C)C1CCC(=O)C2(CCCC2)C1` (stereo not drawn), the T/C reads like this: under setting [5], 100 % of control; (dose: 100.0 mg/kg/injection, schedule: Q01DX009 (ip), vehicle: saline with Tween-80) 114 % of control; under setting [8], 122 % of control.

For `CNC(=O)OCc1c(COC(=O)NC)c2n(c1C)-c1ccc(OC)cc1CCC2`, the T/C by setting is: (dose: 7.5 mg/kg/injection, schedule: Q01DX005 (ip), vehicle: Klucel (hydroxypropylcellulose) (HPC)) 119 % of control; (dose: 15.0 mg/kg/injection, schedule: Q01DX005 (ip), vehicle: Klucel (hydroxypropylcellulose) (HPC)) 122 % of control.

These data come from PubChem BioAssay AID330 (DTP/NCI, 2004).
